Laboratory results taken from US20080280837A1, “Biologically Active Compounds with Anti-Angiogenic Properties” (priority 2004, published 2008).

Biological target: T1, SSTR-1 (Homo sapiens, UniProt P30872)
T1 construct: expressed in transfected cells
Experiment: Radioligand binding screen against somatostatin subtype SSTR-1
Details: Table 8; read-out: Ki SSTR1
Experimental: (§1) Receptor membrane preparations containing the desired cloned receptor (for example cloned human somatostatin receptor subtype 5, SSTR5) and radio-labeled ligand (for example 3-[^125I]iodotyrosyl^11 Somatostatin-14)) were diluted at the concentration required for testing and according to the specific parameters associated with the selected receptor-ligand combination, including receptor Bmax, ligand Kd and any other parameters necessary to optimize the experimental conditions. When tested for competition activity to the reference ligand, “compound 1” was mixed with membrane suspension and the radiolabeled reference ligand (with or without an excess of cold ligand to the receptor for determination of non-specific binding) and incubated at the temperature required by internal standard operating procedures. Following incubation, the binding reaction was stopped by the addition of ice-cold washing buffer and filtered on appropriate filters, which are then counted. Data analysis and curve-fitting was performed with XLfit (IDBS).
(§2) 10 mM solutions of test compounds in 100% DMSO were prepared. ˜160 μl was used for each dilution (20 μl/well in triplicate).
(§3) A 1.25 mM assay stock was prepared by making a 1:8 dilution of the 10 mM solution. (To 30 μL of the 10 mM solution was added 210 μL milli-Q H2O. A 1:5 dilution series in milli-Q H2O was then prepared.
(§4) In primary screening experiments compounds were tested in duplicate for a particular concentration.

T1 sequence (P30872 whole entry, species assumed): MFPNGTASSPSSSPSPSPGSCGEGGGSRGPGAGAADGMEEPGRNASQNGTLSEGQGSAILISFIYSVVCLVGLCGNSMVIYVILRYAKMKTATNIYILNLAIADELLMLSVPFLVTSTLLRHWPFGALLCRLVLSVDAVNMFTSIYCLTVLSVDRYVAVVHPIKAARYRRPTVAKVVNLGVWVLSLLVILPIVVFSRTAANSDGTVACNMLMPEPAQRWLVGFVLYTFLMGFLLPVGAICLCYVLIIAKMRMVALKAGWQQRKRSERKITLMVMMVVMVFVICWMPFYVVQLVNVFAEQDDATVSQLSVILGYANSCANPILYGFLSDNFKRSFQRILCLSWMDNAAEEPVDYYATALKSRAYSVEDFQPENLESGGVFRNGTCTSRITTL

Structure (SMILES) | Ki
COC[C@H]1OC(OCc2ccc3ccccc3c2)[C@H](NC(=O)CCN)[C@H](OCc2ccc3ccccc3c2)[C@@H]1O (some centres unmarked) [Compound 16] | 2.37 µM

Biological target: T2, SSTR-2 (Homo sapiens, UniProt P30874)
T2 construct: expressed in transfected cells
T2 sequence (P30874 whole entry): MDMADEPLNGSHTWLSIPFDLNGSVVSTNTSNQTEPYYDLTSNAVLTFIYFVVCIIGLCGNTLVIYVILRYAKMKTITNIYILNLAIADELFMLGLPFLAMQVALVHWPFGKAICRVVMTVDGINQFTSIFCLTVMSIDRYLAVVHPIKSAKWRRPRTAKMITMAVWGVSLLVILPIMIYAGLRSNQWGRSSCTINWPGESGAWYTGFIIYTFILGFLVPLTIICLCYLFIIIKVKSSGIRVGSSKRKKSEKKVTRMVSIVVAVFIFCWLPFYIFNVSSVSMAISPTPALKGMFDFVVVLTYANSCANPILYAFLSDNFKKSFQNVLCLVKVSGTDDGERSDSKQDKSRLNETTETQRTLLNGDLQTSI
Experiment: Radioligand binding screen against somatostatin subtype SSTR-2
Details: Table 8; read-out: Ki SSTR2
Experimental: as §1, §2, §3, §4

Structure (SMILES) | Ki
COC[C@H]1OC(OCc2ccc3ccccc3c2)[C@H](NC(=O)CCN)[C@H](OCc2ccc3ccccc3c2)[C@@H]1O (some centres unmarked) [Compound 16] | 0.86 µM

Biological target: T3, SSTR-3 (Homo sapiens, UniProt P32745)
T3 construct: expressed in transfected cells
T3 sequence (P32745 whole entry): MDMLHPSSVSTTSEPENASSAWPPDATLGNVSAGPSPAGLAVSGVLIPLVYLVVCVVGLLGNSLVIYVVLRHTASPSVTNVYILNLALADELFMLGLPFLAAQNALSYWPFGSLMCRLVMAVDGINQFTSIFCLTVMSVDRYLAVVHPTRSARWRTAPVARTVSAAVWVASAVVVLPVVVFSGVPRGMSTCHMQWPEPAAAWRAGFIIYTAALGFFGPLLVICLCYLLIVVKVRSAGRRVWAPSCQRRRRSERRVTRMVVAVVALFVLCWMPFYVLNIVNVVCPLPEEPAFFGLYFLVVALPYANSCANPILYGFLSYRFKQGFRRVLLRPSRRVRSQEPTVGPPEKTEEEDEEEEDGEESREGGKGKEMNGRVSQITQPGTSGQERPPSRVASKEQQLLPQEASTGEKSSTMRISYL
Experiment: Radioligand binding screen against somatostatin subtype SSTR-3
Details: Table 8; read-out: Ki SSTR3
Experimental: as §1, §2, §3, §4

Structure (SMILES) | Ki
COC[C@H]1OC(OCc2ccc3ccccc3c2)[C@H](NC(=O)CCN)[C@H](OCc2ccc3ccccc3c2)[C@@H]1O (some centres unmarked) [Compound 16] | 0.441 µM

Biological target: T4, SSTR-4 (Homo sapiens, UniProt P31391)
T4 construct: expressed in transfected cells
T4 sequence (P31391 whole entry): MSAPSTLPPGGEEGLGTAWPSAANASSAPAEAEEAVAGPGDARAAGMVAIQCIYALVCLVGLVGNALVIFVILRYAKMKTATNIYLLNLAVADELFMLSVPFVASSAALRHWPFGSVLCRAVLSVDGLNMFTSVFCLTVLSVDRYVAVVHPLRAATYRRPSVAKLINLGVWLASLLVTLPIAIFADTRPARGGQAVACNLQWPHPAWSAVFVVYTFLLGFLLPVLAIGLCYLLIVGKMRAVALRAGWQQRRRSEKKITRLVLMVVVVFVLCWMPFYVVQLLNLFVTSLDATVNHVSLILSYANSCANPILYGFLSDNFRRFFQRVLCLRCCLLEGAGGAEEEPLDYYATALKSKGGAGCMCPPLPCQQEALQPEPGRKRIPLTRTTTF
Experiment: Radioligand binding screen against somatostatin subtype SSTR-4 (SST4 assay)
Details: Table 8; read-out: Ki SSTR4
Experimental: as §1, §2, §3
Assays were performed in triplicate at each concentration within the 1:5 dilution series: 250 μM, 50 μM, 10 μM, […], 0.4 μM, 0.08 μM, 0.016 μM, 0.0032 μM, etc. (for SST4 assay) and 125 μM, 10 μM, 2 μM, 1 μM, 0.5 μM, etc (for SST5 assay).
as §4

Structure (SMILES) | Ki
COC[C@H]1OC(OCc2ccc3ccccc3c2)[C@H](NC(=O)CCN)[C@H](OCc2ccc3ccccc3c2)[C@@H]1O (some centres unmarked) [Compound 16] | 4.38 µM

Biological target: T5, Human SST5 somatostatin receptor (SSTR5) (Homo sapiens, UniProt P35346)
T5 construct: expressed in transfected cells; host or cells: HEK-293 EBNA
T5 sequence (P35346 whole entry): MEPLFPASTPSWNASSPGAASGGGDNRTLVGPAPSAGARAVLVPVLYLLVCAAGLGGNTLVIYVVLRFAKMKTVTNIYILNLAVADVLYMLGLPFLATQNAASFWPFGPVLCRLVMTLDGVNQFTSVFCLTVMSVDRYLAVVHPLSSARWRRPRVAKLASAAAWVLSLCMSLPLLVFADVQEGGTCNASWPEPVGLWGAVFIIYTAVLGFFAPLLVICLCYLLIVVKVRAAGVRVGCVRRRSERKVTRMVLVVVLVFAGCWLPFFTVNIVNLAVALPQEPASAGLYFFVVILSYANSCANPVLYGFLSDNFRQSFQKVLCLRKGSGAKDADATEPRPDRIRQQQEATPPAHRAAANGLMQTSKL
Experiment: Filter plate assay for SST5 receptor, displacement of [125I]SST-14
Type: binding
Details: Table 8
Method in brief: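 HEK-293 EBNA membranes expressing human SST5 (5.5 μg) incubated 60 min at 25 °C with 4 nM [125I]SST-14 and compound in pH 7.5 Tris/EGTA/MgCl2/sucrose buffer. Bound radioactivity collected on PEI-coated glass fiber filters and counted; triplicate 1:5 dilution series from 125 μM, non-specific binding with excess cold ligand.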

Structure (SMILES) | Ki
COC[C@H]1OC(OCc2ccc3ccccc3c2)[C@H](NC(=O)CCN)[C@H](OCc2ccc3ccccc3c2)[C@@H]1O (some centres unmarked) [Compound 16] | 0.085 µM

Test system: HUVEC tube formation
Experiment: Matrigel tube formation assay
Type: cell-based, human
Details: 22 hrs, 50% inhibition of tube formation
Experimental: HUVEC (Clonetics) were plated in 96 well plates in EGM-2 media (Clonetics) at 2.5 to 3×10^4 cells per well. Cells of less than 6 passages were used in all studies. Wells were precoated with 50 μL growth factor containing Matrigel (Becton Dickinson). HUVEC were allowed to form tubes by incubation at 37° C. in 5% CO2 for 22 hrs. In test wells compound was added in the desired concentration. Photographic images of the wells ×4 magnification were used to determine size of the tubes, length of tubes and number of junctions using image analysis software.

Structure (SMILES) | EC50
COC1C(O)C(COCc2ccc3ccccc3c2)OC(OCc2ccc(Cl)cc2)C1NC(=O)C1CCCN(C(=N)N)C1 (mixture of isomers) [14 mixture] | 155 µM
COCC1OC(OCc2ccc(Cl)cc2)C(NC(=O)CCN)C(OCc2ccc3ccccc3c2)C1O (stereo not drawn) [3 alpha] | 45 µM
COCC1OC(OCc2ccc(Cl)cc2)C(NC(=O)CCN)C(OCc2ccc3ccccc3c2)C1O (stereo not drawn) [3 beta] | 90 µM
COCC1OC(OCc2ccc3ccccc3c2)C(NC(=O)CCN)C(OCc2ccc(Cl)cc2)C1O (stereo not drawn) [7 alpha] | 50 µM
COCC1OC(OCc2ccc3ccccc3c2)C(NC(=O)CCN)C(OCc2ccc(Cl)cc2)C1O (stereo not drawn) [7 beta] | 95 µM
COCC1OC(OCc2ccc3ccccc3c2)C(NC(=O)CCN)C(OCc2ccc3ccccc3c2)C1O (stereo not drawn) [16 alpha] | 55 µM
